The assay deals with HEK293 cells. The assay can be described thus: Preliminary screening as mRNA vectors, EGFP mRNA transfection of HEK293 cells. The class given is cell-based. The following applies: EGFP mRNA 50 ng per well, 96-well plates; percentage of GFP fluorescent cells relative to total number of cells (Hoechst). The procedure:
Cell line: HEK293 cells (ATCC CRL-1573™)
Medium: DMEM supplemented with 10% fetal bovine serum (Invitrogen)
Screening: cell transfection on 96-well plates
Detection (readout): percentage of the number of GFP fluorescent cells relative to the total number of cells (the total number of cells was determined using nucleus dye Hoechst). Lipofectamine2000 (Invitrogen) was used as the positive control.
Method: the experimental method was basically the same with Example 4, and the mass of EGFP mRNA (TriLink) for transfection was 50 ng per well.
`CCCCCCCCCCCSc1nc(NCCCCCCCC)nc(NCCN(C)C)n1` [Compound D1S11N8]: the “Absolute mRNA transfection efficiency in HEK293 cells” value (from here on “Absolute mRNA transfection efficiency”) was determined as 13.1%.

On to `CCCCCCCCCCCSc1nc(NCCCCCCCCC)nc(NCCN(C)C)n1` [Compound D1S11N9], for which the “Absolute mRNA transfection efficiency” value is on record as 14.7%.

In the case of `CCCCCCCCCCCNc1nc(NCCN(C)C)nc(SCCCCCCCCCCC)n1` [Compound D1S11N11], the “Absolute mRNA transfection efficiency” value amounted to 24.7%.

With `CCCCCCCCCCCCNc1nc(NCCN(C)C)nc(SCCCCCCCCCCC)n1` [Compound D1S11N12], the “Absolute mRNA transfection efficiency” value was 27.3%.

For `CCCCCCCCCCCCCNc1nc(NCCN(C)C)nc(SCCCCCCCCCCC)n1` [Compound D1S11N13], the “Absolute mRNA transfection efficiency” value is 12.6%.

For `CCCCCCCCCCCCCCCNc1nc(NCCN(C)C)nc(SCCCCCCCCCCC)n1` [Compound D1S11N15], the “Absolute mRNA transfection efficiency” value is recorded as 6.2%.

In the case of `CCCCCCCCCCCCCCCCNc1nc(NCCN(C)C)nc(SCCCCCCCCCCC)n1` [Compound D1S11N16], the “Absolute mRNA transfection efficiency” value is given as 13.0%.

On to `CCCCCCCCCCCCCCCCCCNc1nc(NCCN(C)C)nc(SCCCCCCCCCCC)n1` [Compound D1S11N18], for which the “Absolute mRNA transfection efficiency” value was 15.4%.

With `CCCCCCCCCCCCSc1nc(NCCCCCC)nc(NCCN(C)C)n1` [Compound D1S12N6], the “Absolute mRNA transfection efficiency” value is 0.0%.

On to `CCCCCCCCCCCCSc1nc(NCCCCCCC)nc(NCCN(C)C)n1` [Compound D1S12N7], for which the “Absolute mRNA transfection efficiency” value was found to be 1.5%.

With `CCCCCCCCCCCCSc1nc(NCCCCCCCC)nc(NCCN(C)C)n1` [Compound D1S12N8], the “Absolute mRNA transfection efficiency” value was 11.3%.

With `CCCCCCCCCCCCSc1nc(NCCCCCCCCC)nc(NCCN(C)C)n1` [Compound D1S12N9], the “Absolute mRNA transfection efficiency” value is listed as 34.2%.

`CCCCCCCCCCCCSc1nc(NCCCCCCCCCCC)nc(NCCN(C)C)n1` [Compound D1S12N11]: the “Absolute mRNA transfection efficiency” value was 2.6%.

`CCCCCCCCCCCCNc1nc(NCCN(C)C)nc(SCCCCCCCCCCCC)n1` [Compound D1S12N12]: the “Absolute mRNA transfection efficiency” value amounted to 1.7%.

`CCCCCCCCCCCCCNc1nc(NCCN(C)C)nc(SCCCCCCCCCCCC)n1` [Compound D1S12N13]: the “Absolute mRNA transfection efficiency” value was 1.2%.

With `CCCCCCCCCCCCCCCNc1nc(NCCN(C)C)nc(SCCCCCCCCCCCC)n1` [Compound D1S12N15], the “Absolute mRNA transfection efficiency” value is reported as 0.5%.

For the compound `CCCCCCCCCCCCCCCCNc1nc(NCCN(C)C)nc(SCCCCCCCCCCCC)n1` [Compound D1S12N16], the “Absolute mRNA transfection efficiency” value came to 0.0%.

Turning to `CCCCCCCCCCCCCCCCCCNc1nc(NCCN(C)C)nc(SCCCCCCCCCCCC)n1` [Compound D1S12N18], the “Absolute mRNA transfection efficiency” value was determined as 0.0%.

For the compound `CCCCCCCCCCCCCCSc1nc(NCCCCCC)nc(NCCN(C)C)n1` [Compound D1S14N6], the “Absolute mRNA transfection efficiency” value came out at 29.1%.

Regarding `CCCCCCCCCCCCCCSc1nc(NCCCCCCC)nc(NCCN(C)C)n1` [Compound D1S14N7], the “Absolute mRNA transfection efficiency” value is given as 25.7%.

As to `CCCCCCCCCCCCCCSc1nc(NCCCCCCCC)nc(NCCN(C)C)n1` [Compound D1S14N8], the “Absolute mRNA transfection efficiency” value came to 56.7%.

For `CCCCCCCCCCCCCCSc1nc(NCCCCCCCCC)nc(NCCN(C)C)n1` [Compound D1S14N9], the “Absolute mRNA transfection efficiency” value was found to be 39.0%.

In the case of `CCCCCCCCCCCCCCSc1nc(NCCCCCCCCCCC)nc(NCCN(C)C)n1` [Compound D1S14N11], the “Absolute mRNA transfection efficiency” value amounted to 14.3%.

Consider `CCCCCCCCCCCCCCSc1nc(NCCCCCCCCCCCC)nc(NCCN(C)C)n1` [Compound D1S14N12], for which the “Absolute mRNA transfection efficiency” value is 9.6%.

Regarding `CCCCCCCCCCCCCCSc1nc(NCCCCCCCCCCCCC)nc(NCCN(C)C)n1` [Compound D1S14N13], the “Absolute mRNA transfection efficiency” value is reported as 6.0%.

`CCCCCCCCCCCCCCCNc1nc(NCCN(C)C)nc(SCCCCCCCCCCCCCC)n1` [Compound D1S14N15]: the “Absolute mRNA transfection efficiency” value is recorded as 1.1%.

As to `CCCCCCCCCCCCCCCCNc1nc(NCCN(C)C)nc(SCCCCCCCCCCCCCC)n1` [Compound D1S14N16], the “Absolute mRNA transfection efficiency” value amounted to 1.8%.

As for `CCCCCCCCCCCCCCCCCCNc1nc(NCCN(C)C)nc(SCCCCCCCCCCCCCC)n1` [Compound D1S14N18], the “Absolute mRNA transfection efficiency” value is given as 1.8%.

For the compound `CCCCCCCCCCCCCCCSc1nc(NCCCCCC)nc(NCCN(C)C)n1` [Compound D1S15N6], the “Absolute mRNA transfection efficiency” value was found to be 37.7%.

In the case of `CCCCCCCCCCCCCCCSc1nc(NCCCCCCC)nc(NCCN(C)C)n1` [Compound D1S15N7], the “Absolute mRNA transfection efficiency” value was determined as 66.1%.

As for `CCCCCCCCCCCCCCCSc1nc(NCCCCCCCC)nc(NCCN(C)C)n1` [Compound D1S15N8], the “Absolute mRNA transfection efficiency” value came out at 98.3%.

Take `CCCCCCCCCCCCCCCSc1nc(NCCCCCCCCC)nc(NCCN(C)C)n1` [Compound D1S15N9]: the “Absolute mRNA transfection efficiency” value came to 96.3%.

In the case of `CCCCCCCCCCCCCCCSc1nc(NCCCCCCCCCCC)nc(NCCN(C)C)n1` [Compound D1S15N11], the “Absolute mRNA transfection efficiency” value was 11.9%.

Turning to `CCCCCCCCCCCCCCCSc1nc(NCCCCCCCCCCCC)nc(NCCN(C)C)n1` [Compound D1S15N12], the “Absolute mRNA transfection efficiency” value came out at 4.8%.

With `CCCCCCCCCCCCCCCSc1nc(NCCCCCCCCCCCCC)nc(NCCN(C)C)n1` [Compound D1S15N13], the “Absolute mRNA transfection efficiency” value is reported as 1.5%.

For `CCCCCCCCCCCCCCCNc1nc(NCCN(C)C)nc(SCCCCCCCCCCCCCCC)n1` [Compound D1S15N15], the “Absolute mRNA transfection efficiency” value was 0.3%.

On to `CCCCCCCCCCCCCCCCNc1nc(NCCN(C)C)nc(SCCCCCCCCCCCCCCC)n1` [Compound D1S15N16], for which the “Absolute mRNA transfection efficiency” value was determined as 3.2%.

Regarding `CCCCCCCCCCCCCCCCCCNc1nc(NCCN(C)C)nc(SCCCCCCCCCCCCCCC)n1` [Compound D1S15N18], the “Absolute mRNA transfection efficiency” value was determined as 3.8%.

Take `CCCCCCCCCCCCCCCCSc1nc(NCCCCCC)nc(NCCN(C)C)n1` [Compound D1S16N6]: the “Absolute mRNA transfection efficiency” value is 54.2%.

Consider `CCCCCCCCCCCCCCCCSc1nc(NCCCCCCC)nc(NCCN(C)C)n1` [Compound D1S16N7], for which the “Absolute mRNA transfection efficiency” value turned out to be 65.1%.

As to `CCCCCCCCCCCCCCCCSc1nc(NCCCCCCCC)nc(NCCN(C)C)n1` [Compound D1S16N8], the “Absolute mRNA transfection efficiency” value was 40.3%.

As to `CCCCCCCCCCCCCCCCSc1nc(NCCCCCCCCC)nc(NCCN(C)C)n1` [Compound D1S16N9], the “Absolute mRNA transfection efficiency” value came out at 26.4%.

As for `CCCCCCCCCCCCCCCCSc1nc(NCCCCCCCCCCC)nc(NCCN(C)C)n1` [Compound D1S16N11], the “Absolute mRNA transfection efficiency” value is recorded as 19.8%.

`CCCCCCCCCCCCCCCCSc1nc(NCCCCCCCCCCCC)nc(NCCN(C)C)n1` [Compound D1S16N12]: the “Absolute mRNA transfection efficiency” value was determined as 3.0%.

Take `CCCCCCCCCCCCCCCCSc1nc(NCCCCCCCCCCCCC)nc(NCCN(C)C)n1` [Compound D1S16N13]: the “Absolute mRNA transfection efficiency” value is recorded as 0.9%.

The record behind these values is US20230123334A1, “AMINO LIPID COMPOUND, PREPARATION METHOD THEREFOR, AND APPLICATION THEREOF” (SHENZHEN SHENXIN BIOTECHNOLOGY CO., LTD., priority 2020, published 2023).
